The values that follow come from US5622947A, “Benzoheterocyclic compounds and vasopressin antagonist and oxytocin antagonist compositions containing a benzoheterocyclic compound” (Otsuka Pharmaceutical Co., Ltd., priority 1992, dated 1997).

Experiment [1] has as its target T1, V1 Recepter (rat liver plasma membrane preparations) (Rattus norvegicus, UniProt P30560).
T1 construct: rat liver plasma membrane preparations; from tissue; host or cells: rat liver plasma membranes
Briefly: V1 Recepter binding assay. The settings on record: [3H]-Arg-vasopressin 2×10^-10 M, 37° C., 10 minutes, pH 8.0, rat liver plasma membrane. The method, then: Test-1: V1 Recepter binding assay
By using rat liver plasma membrane preparations prepared according to Ichiraha's method [by Akira Ichihara: J. Bio. Chem., 258, 9283 (1983)], the plasma membrane (50,000 dpm, 2×10^-10 M) of [^3 H]-Arg-vasopressin and a test compound (60 μg, 10^-8 to 10^-4 M) were incubated at 37° C. for 10 minutes in 250 μl (in total volume) of 100 mM Tris-HCl buffer (pH=8.0), containing 5 mM MgCl2, 1 mM EDTA and 0.1% BSA. After the incubation, the mixture was filtered three times by using a glass filter (GF/F) so as to separate the membrane preparation by combining with vasopressin and then washed with the buffer (5 ml). This glass filter was taken out and mixed with a liquid of scintillation cocktail. The amount of [^3 H]-vasopressin combining with the membrane was measured by liquid scintillation counter and the rate of inhibitory effect of the test compound was calculated according to the following equation: […]
C1 : the amount of [^3 H]-vasopressin combining with the membrane in the presence of the test compound of a known amount,
(§1) C0 : the amount of [^3 H]-vasopressin combining with the membrane in the absence of the test compound,
B1 : the amount of [^3 H]-vasopressin combining with the membrane in the presence of the excess amount of vasopressin (10^-6 M).
The results are expressed as IC50 value, which is the concentration of the test compound required to achieve the inhitory effect in the rate of 50% and are shown in the following Table 156.

Experiment [2] addresses T2, V2 Recepter (rat kidney plasma membrane preparations) (Rattus norvegicus, UniProt Q00788).
T2 construct: rat kidney plasma membrane preparations; from tissue; host or cells: rat kidney plasma membranes
The experiment can be described thus: V2 Recepter binding assay. To be noted: [3H]-Arg-vasopressin 4×10^-10 M, 4° C., pH 8.0, rat kidney plasma membrane. As for the experimental part:
Test 2: V2 Recepter binding assay
By using rat kidney plasma membrane preparations prepared according to Hechter's method [by O. Hechter: J. Bio. Chem., 2.53, 3211 (1978)], the plasma membrane (100,000 dpm, 4×10^-10 M) of [^3 H]-Arg-vasopressin and a test compound (0.6 mg, 10^-10 to 10^-5 M) were incubated at 4° C. for 3 hours in 250 μl (in total volume) of 100 mM Tris-HCl buffer (pH=8.0), containing, 5 mM MgCl2, 1 mM EDTA and 0.1% BSA. After the incubation, the mixture, the mixture was filtered by using a glass filter (GF/F) so as to separate the membrane preparation combining with vasopressin, then washed twice with the buffer (5 ml). This glass filter was taken out and mixed with liquid scintillation cocktail. The amount of [^3 H]-vasopressin combining with the membrane was measured by a liquid scintillation counter and the rate of inhibitory effect of the test compound was calculated according to the following equation: Rate of the inhibitory
C1 : the amount of [^3 H]-vasopressin combining with the membrane in the presence of the testcompound of a known amount,
as §1
B1 : the amount of [^3 H]-vasopressin combining with the mebrane in the presence of the excess amount of vasopressin (10^-6 M).
The results are expressed as IC50 value, which is the concentration of the test compound required to achieve the inhibitory effect in the rate of 50%, and are shown in the following Table 157.

In experiment [3] the target is T3, Oxytocin receptor (uterin muscle membrane preparation) (Rattus norvegicus, UniProt P70536).
T3 construct: was homogenized, which was used as a membrane; from tissue; host or cells: uterine muscle membranes from diethylstilbestrol-treated animals
T3 sequence (P70536 1-388): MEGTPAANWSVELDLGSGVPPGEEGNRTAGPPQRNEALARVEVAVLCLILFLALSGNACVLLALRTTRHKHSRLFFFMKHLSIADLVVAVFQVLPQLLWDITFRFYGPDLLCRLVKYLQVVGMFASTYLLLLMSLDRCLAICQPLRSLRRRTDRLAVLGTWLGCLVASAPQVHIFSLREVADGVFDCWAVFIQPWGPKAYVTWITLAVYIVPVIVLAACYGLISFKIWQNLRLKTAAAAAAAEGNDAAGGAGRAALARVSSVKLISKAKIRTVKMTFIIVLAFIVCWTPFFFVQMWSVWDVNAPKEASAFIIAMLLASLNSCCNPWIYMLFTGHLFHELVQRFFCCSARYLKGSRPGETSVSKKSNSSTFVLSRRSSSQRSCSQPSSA
The experiment can be described thus: Oxytocin receptor binding assay. To be noted: [3H]-oxytocin 10^-9 M, 25°, one hour, pH 8.0, uterin muscle membrane, DES-treated. The method, then: Test-5 Oxytocin receptor binding assay
In accordance with Chan's method [by W. Y. Chan, et al.: Endocrinology, 126, 2095-2101 (1990)], the uterin muscle benn injected subcutaneously with diethylstilbe-sterol (DES) the day before and was homogenized, which was used as a membrane prepara tion. The membrane preparation (0.2 mg), [^3 H]-oxytocin (100,000 dpm, 10^-9 M), a test compound (10^-9 to 10^-5 M) were incubated at 25°. for one hour in 100 mM Tris-HCl buffer (pH=8.0, 250 μl) containing 5 mM MgCl2, 1 mM EDTA and 0.1% BSA. The mixture was filtered through a glass filter (GF/F) so as to separate the membrane preparation combining with [^3 H]-oxytocin, then, was washed twicw with the buffer (5 ml). The glass filter was put into a vial and mixed with Aquasole (a liquid scintillation cocktail). The amount of [^3 H]-oxytocin combining w ith the membrane was measured by a liquid scintillation counter. The rate of the inhibitory effect of the test compound was calculated according to the equation as follows: […]
C1 : the amount of [^3 H]-oxytocin combining with the membrane in the presence of a test compound (in known amount),
C0 : the amount of [^3 H]-oxytocin combinig with the membrane in the absence of a test compound,
B: the amount of [^3 H]-oxytocin combining with the membrane in the presence of the excess amount of oxytocin (5×10^-6 M).
The results are expressed as IC50 values, which is the concentration of the test compound required to achieve the inhibitory effect in the rate of 50%.

Counter-ions that a name gives are not always drawn.

T2 sequence (Q00788 whole entry): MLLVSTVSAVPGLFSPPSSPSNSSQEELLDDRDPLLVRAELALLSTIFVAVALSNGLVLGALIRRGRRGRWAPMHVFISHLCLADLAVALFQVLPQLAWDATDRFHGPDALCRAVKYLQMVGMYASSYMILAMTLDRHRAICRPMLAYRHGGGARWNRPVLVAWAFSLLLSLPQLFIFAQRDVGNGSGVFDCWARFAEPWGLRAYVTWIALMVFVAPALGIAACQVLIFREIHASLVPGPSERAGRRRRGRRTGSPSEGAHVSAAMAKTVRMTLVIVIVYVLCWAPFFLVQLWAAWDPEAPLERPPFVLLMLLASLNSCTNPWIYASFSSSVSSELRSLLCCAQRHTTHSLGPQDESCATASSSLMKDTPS
T1 sequence (P30560 whole entry): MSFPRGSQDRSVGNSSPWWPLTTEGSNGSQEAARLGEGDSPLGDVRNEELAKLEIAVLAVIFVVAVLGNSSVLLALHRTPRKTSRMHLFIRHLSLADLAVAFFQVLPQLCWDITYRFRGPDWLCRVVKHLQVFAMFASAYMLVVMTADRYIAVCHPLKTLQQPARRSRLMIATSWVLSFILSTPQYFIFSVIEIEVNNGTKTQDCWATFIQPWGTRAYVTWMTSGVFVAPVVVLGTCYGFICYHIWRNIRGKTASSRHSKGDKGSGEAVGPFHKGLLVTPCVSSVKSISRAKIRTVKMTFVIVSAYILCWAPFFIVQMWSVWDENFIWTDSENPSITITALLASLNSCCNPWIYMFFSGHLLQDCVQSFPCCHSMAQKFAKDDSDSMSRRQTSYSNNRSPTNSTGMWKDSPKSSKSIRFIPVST

As a reminder, the IC50 is the concentration that inhibits the measured activity by half. Read a high IC50 as lower potency. With `COc1cc(C(=O)N2CCCCc3cc(Cl)ccc32)ccc1NC(=O)c1ccccc1OCCCN1CCC(NC(C)=O)CC1` (single isomer, unassigned) [Example 72, 7-Chloro-1-[3-methoxy-4-{2-[3-(4-acetylamino-1-piperidinyl)propoxy]benzoylamino}benzoyl]-2,3,4,5-tetrahydro-1H-benzoazepine], the IC50 in experiment [1] amounted to 1.2 nM; in experiment [2] it was 74 nM.
With `COc1cc(NC(=O)c2ccccc2Cl)ccc1C(=O)N1CCCC(CC(=O)N2CCN(CCO)CC2)c2cc(Cl)ccc21` (single isomer, unassigned) [Example 85, 5-[4-(2-Hydroxyethyl)-1-piperazinyl]-carbonylmethyl-7-chloro-1-[2-methoxy-4-(2-chlorobenzoylamino)benzoyl]-2,3,4,5-tetrahydro-1H-benzoazepine], the IC50 in experiment [1] was 16 nM; in experiment [3], 94 nM; in experiment [2], 8 nM.
Regarding `C=CCOC1CCCN(C(=O)c2ccc(NC(=O)c3ccccc3C)cc2)c2ccc(Cl)cc21` (stereo not drawn) [Example 64, 5-Allyloxy-7-chloro-1-[4-(2-methylbenzoylamino)benzoyl]-2,3,4,5-tetrahydro-1H-benzoazepine], in experiment [1], the 50% inhibitory concentration (IC50) is 45 nM.
For the compound `COc1cc(C(=O)N2CCCCc3cc(Cl)ccc32)ccc1NC(=O)c1ccccc1OCCCn1cncn1` [Example 73, 7-Chloro-1-[3-methoxy-4-{2-[3-(1,2,4-triazol-1-yl)-propoxy]benzoylamino}benzoyl]-2,3,4,5-tetrahydro-1H-benzoazepine], the IC50 in experiment [1] worked out at 7 nM; in experiment [2], 80 nM.
In the case of `COc1cc(NC(=O)c2ccccc2Cl)ccc1C(=O)N1CCCC(CC(=O)N2CCN(CC#N)CC2)c2cc(Cl)ccc21` (stereo not drawn) [Example 80, 5-(4-Cyanomethyl-1-piperazinyl)carbonylmethyl 7-chloro-1-[2-methoxy-4-(2-chlorobenzoylamino)benzoyl]-2,3,4,5-tetrahydro-1H-benzoazepine], the concentration for half-maximal inhibition (IC50) in experiment [1] is 16 nM; in experiment [3], 84 nM; in experiment [2], 9 nM.
The like results for `C=CCN1CCN(C(=O)CC2CCCN(C(=O)c3ccc(NC(=O)c4ccccc4Cl)cc3OC)c3ccc(Cl)cc32)CC1` (stereo not drawn) [Example 81, 5-(4-Allyl-1-piperazinyl)carbonylmethyl-7-chloro-1-[2-methoxy-4-(2-chlorobenzoylamino)benzoyl]-2,3,4,5-tetrahydro-1H-benzoazepine] were, in that order, 23 nM, 100 nM and 10 nM.
Take `COc1cc(NC(=O)c2ccccc2Cl)ccc1C(=O)N1CCCC(CC(=O)N2CCN(CC(O)CNC(C)C)CC2)c2cc(Cl)ccc21` (stereo not drawn) [Example 87, 5-[4-(2-Hydroxy-3-isopropylaminopropyl)-1-piperazinyl]carbonylmethyl-7-chloro-1-[2-methoxy-4-(2-chlorobenzoylamino)benzoyl]-2,3,4,5-tetrahydro-1H-benzoazepine]: the IC50 in experiment [1] came to 7 nM; in experiment [3] it was 70 nM; in experiment [2], 2 nM.
For the compound `COc1cc(NC(=O)c2ccccc2Cl)ccc1C(=O)N1CCCC(CC(=O)NCCN(C)C)c2cc(Cl)ccc21` (stereo not drawn) [Example 89, 5-(2-Dimethylaminoethylamino)carbonylmethyl-7-chloro-1-[2-methoxy-4-(2-chlorobenzoylamino)benzoyl]-2,3,4,5-tetrahydro-1H-benzoazepine.cndot.hydrochloride], the IC50 amounted to 9 nM in experiment [1] and 2.5 nM in experiment [2].
The like results for `CCN(CC)CCN(C)C(=O)CC1CCCN(C(=O)c2ccc(NC(=O)c3ccccc3Br)c(OC)c2)c2ccc(Cl)cc21` (stereo not drawn) [Example 91, 5-[N-Methyl-N-(2-diethylaminoethyl)amino]-carbonylmethyl-7-chloro-1-[3-methoxy-4-(2-bromobenzoylamino)benzoyl]-2,3,4,5-tetrahydro-1H-benzoazepine] were, in that order, 2.6 nM and 3.5 nM.
Regarding `CNC(=NC#N)NCCOC1CCCN(C(=O)c2ccc(NC(=O)c3ccccc3Cl)cc2OC)c2ccc(Cl)cc21` (stereo not drawn) [Example 149, 5-[2-(3-Methyl-2-cyanogianidino)ethoxy]-7-chloro-1-[2-methoxy-4-(2-chlorobenzoylamino)benzoyl]-2,3,4,5-tetrahydro-1H-benzoazepine], the IC50 in experiment [1] came to 90 nM; in experiment [2], 45 nM.
As to `COc1cc(NC(=O)c2ccccc2Cl)ccc1C(=O)N1CCCC(OCCNCC#N)c2cc(Cl)ccc21` (stereo not drawn) [Example 151], the concentration for half-maximal inhibition (IC50) in experiment [1] was 46 nM; in experiment [2], 8 nM.
The like results for `CC(C)NCCCCOc1ccccc1C(=O)Nc1ccc(C(=O)N2CCCC(CC(=O)N(C)C)c3cc(Cl)ccc32)cc1` (stereo not drawn) [Example 162, 5-Dimethylaminocarbonylmethyl-7-chloro-1-{4-[2-(4-isopropylaminobutoxy)benzoylamino]-benzoyl}-2,3,4,5-tetrahydro-1H-benzoazepine] were, in that order, 9.2 nM and 130 nM.
In the same order, the values of `COc1cc(C(=O)N2CCCC(CC(=O)N(C)CCN(C)C)c3cc(Cl)ccc32)ccc1NC(=O)c1ccccc1Br` (stereo not drawn) [Example 163, 5-[N-(2-Dimethylaminoethyl)-N-methylamino]-carbonylmethyl-7-chloro-1-[3-methoxy-4-(2-bromobenzoylamino)benzoyl]-2,3,4,5-tetrahydro-1H-benzoazepine] are 1.8 nM and 8 nM.
In the same order, the values of `CCN(CCN(C)C)C(=O)COC1CCCN(C(=O)c2ccc(NC(=O)c3ccccc3Br)c(OC)c2)c2ccc(Cl)cc21` (stereo not drawn) [Example 165, 5-[N-(2-Dimethylaminoethyl)-N-ethylamino]-carbonylmethoxy-7-chloro-[3-methoxy-4-(2-bromobenzoylamino)benzoyl]-2,3,4,5-tetrahydro-1H-benzoazepine] are 3.6 nM and 4.3 nM.
As to `COc1cc(C(=O)N2CCCC(OCC(=O)N3CCCN(C)CC3)c3cc(Cl)ccc32)ccc1NC(=O)c1ccccc1Br` (stereo not drawn) [Example 166, 5-(4-Methyl-1-homopiperazinyl)carbonylmethoxy-7-chloro-1-[3-methoxy-4-(2-bromobenzoylamino)benzoyl]-2,3,4,5-tetrahydro-1H-benzoazepine], the IC50 is 4.8 nM in experiment [1] and 10 nM in experiment [2].
